Laboratory results from US9994581B2, “Bromodomain inhibitors” (AbbVie Inc., priority 2013, dated 2018).
pEC50, pKi: −log10 of the molar value. Read-outs that look alike come from different tables or passages of the source.

How the values were obtained:
BRD4 (BDI-BDII_K57-K550) = BRD4 (BDI-BDII_K57-K550) (Homo sapiens, UniProt O60885); experiment: TR-FRET bromodomain binding assay; settings: His-tagged tandem bromodomain, Alexa647-labeled probe; Ki calculated from IC50s, probe Kd and probe concentration
Protocol: A time-resolved fluorescence resonance energy transfer (TR-FRET) assay was used to determine the affinities of compounds of the Examples listed in Table 1 for the tandem domain of bromodomain BRD4. […] An Alexa647-labeled BET-inhibitor was used as the fluorescent probe in the assay.
TR-FRET data were normalized to the means of 24 no-compound controls (“high”) and 8 controls containing 1 μM un-labeled probe (“low”). Percent inhibition was plotted as a function of compound concentration and the data were fit with the 4 parameter logistic equation to obtain IC50s. Inhibition constants (Ki) were calculated from the IC50s, probe Kd and probe concentration. Typical Z′ values were between 0.65 and 0.75.

[1] = system: breast cancer cell line MX-1; experiment: MX-1 cell line proliferation assay (3-day, Cell Titer Glo); assay type: cell-based; settings: 72 hours, read-out: Cellular proliferation: EC50
Protocol: The impact of compounds of the Examples on cancer cell proliferation was determined using the breast cancer cell line MX-1 (ATCC) in a 3-day proliferation assay and the data are reported in Table 1. […] For compound testing, MX-1 cells were plated in 96-well black bottom plates at a density of 5000 cells/well in 90 μL of culture media and incubated at 37° overnight to allow cell adhesion and spreading. Compound dilution series were prepared in DMSO via a 3-fold serial dilution from 3 mM to 0.1 μM. The DMSO dilution series were then diluted 1:100 in phosphate buffered saline, and 10 μL of the resulted solution were added to the appropriate wells of the MX-1 cell plate. The final compound concentrations in the wells were 3, 1, 0.3, 0.1, 0.03, 0.01, 0.003, 0.001, 0.0003, and 0.0001 μM, or 1, 0.3, 0.1, 0.03, 0.01, 0.003, 0.001, 0.0003, 0.0001, and 0.00003 μM.
Luminescence readings from the Cell Titer Glo assay were normalized to the DMSO treated cells and analyzed using the GraphPad Prism software with sigmoidal curve fitting to obtain EC50s.

Row | SMILES | pKi (BRD4 (BDI-BDII_K57-K550)) | pEC50 ([1]; Homo sapiens, MX1, MX-1 cells) | pEC50 ([1]; MX-1 cells)
1 | CCS(=O)(=O)c1ccc2c(c1)-c1cn(C)c(=O)cc1OCCCc1ccccc1O2 [Example A-1, 16-(ethylsulfonyl)-2-methyl-7,8-dihydro-2H-dibenzo[4,5:7,8][1,6]dioxacycloundecino[3,2-c]pyridin-3(6H)-one] | 8.34 | 8.16 | –
2 | CCS(=O)(=O)c1ccc2c(c1)-c1cn(C)c(=O)cc1OCCc1ccccc1O2 [Example A-2, 3-(ethylsulfonyl)-6-methyl-10,11-dihydrodibenzo[4,5:7,8][1,6]dioxecino[3,2-c]pyridin-7(6H)-one] | 6.63 | – | 6.15
3 | CCS(=O)(=O)c1ccc2c(c1)-c1cn(C)c(=O)cc1OCCCCc1ccccc1O2 [Example A-4, 17-(ethylsulfonyl)-2-methyl-6,7,8,9-tetrahydrodibenzo[4,5:7,8][1,6]dioxacyclododecino[3,2-c]pyridin-3(2H)-one] | 8.51 | 7.98 | –
4 | Cn1cc2c(cc1=O)OCCCc1cc(Cl)ccc1Oc1ccc(N)cc1-2 [Example A-7, 16-amino-10-chloro-2-methyl-7,8-dihydro-2H-dibenzo[4,5:7,8][1,6]dioxacycloundecino[3,2-c]pyridin-3(6H)-one] | 7.59 | 6.96 | –
5 | Cn1cc2c(cc1=O)OCCCCc1cc(Cl)ccc1Oc1ccc(N)cc1-2 [Example A-8, 17-amino-11-chloro-2-methyl-6,7,8,9-tetrahydrodibenzo[4,5:7,8][1,6]dioxacyclododecino[3,2-c]pyridin-3(2H)-one] | 7.60 | – | –
6 | CCNC(=O)Nc1ccc2c(c1)-c1cn(C)c(=O)cc1OCCCc1cc(Cl)ccc1O2 [Example A-10, 1-(10-chloro-2-methyl-3-oxo-3,6,7,8-tetrahydro-2H-dibenzo[4,5:7,8][1,6]dioxacycloundecino[3,2-c]pyridin-16-yl)-3-ethylurea] | 7.45 | 6.46 | –
7 | CC(=O)Nc1ccc2c(c1)-c1cn(C)c(=O)cc1OCCCc1cc(Cl)ccc1O2 [Example A-11, N-(10-chloro-2-methyl-3-oxo-3,6,7,8-tetrahydro-2H-dibenzo[4,5:7,8][1,6]dioxacycloundecino[3,2-c]pyridin-16-yl)acetamide] | 8.27 | 7.51 | –
8 | CCS(=O)(=O)Nc1ccc2c(c1)-c1cn(C)c(=O)cc1OCC/C=C/Cc1cc(Cl)ccc1O2 [Example A-15, (E)-N-(12-chloro-2-methyl-3-oxo-3,6,7,10-tetrahydro-2H-dibenzo[4,5:7,8][1,6]dioxacyclotridecino[3,2-c]pyridin-18-yl)ethanesulfonamide] | 8.51 | 7.37 | –
9 | CCS(=O)(=O)Nc1ccc2c(c1)-c1cn(C)c(=O)cc1OCCC/C=C/c1cc(Cl)ccc1O2 [Example A-16, (E)-N-(12-chloro-2-methyl-3-oxo-3,6,7,8-tetrahydro-2H-dibenzo[4,5:7,8][1,6]dioxacyclotridecino[3,2-c]pyridin-18-yl)ethanesulfonamide] | 8.78 | 7.82 | –
10 | CCS(=O)(=O)Nc1ccc2c(c1)-c1cn(C)c(=O)cc1OC(C)CCCc1cc(Cl)ccc1O2 (centres unmarked) [Example A-17, N-(11-chloro-2,6-dimethyl-3-oxo-2,3,6,7,8,9-hexahydrodibenzo[4,5:7,8][1,6]dioxacyclododecino[3,2-c]pyridin-17-yl)ethanesulfonamide] | 8.65 | 8.11 | –
11 | CCS(=O)(=O)Nc1ccc2c(c1)-c1cn(C)c(=O)cc1OCC/C=C/c1cc(Cl)ccc1O2 [Example A-18, (E)-N-(11-chloro-2-methyl-3-oxo-2,3,6,7-tetrahydrodibenzo[4,5:7,8][1,6]dioxacyclododecino[3,2-c]pyridin-17-yl)ethanesulfonamide] | 8.39 | 8.05 | –
12 | CCS(=O)(=O)Nc1ccc2c(c1)-c1cn(C)c(=O)cc1OCCCCCc1cc(Cl)ccc1O2 [Example A-19, N-(12-chloro-2-methyl-3-oxo-3,6,7,8,9,10-hexahydro-2H-dibenzo[4,5:7,8][1,6]dioxacyclotridecino[3,2-c]pyridin-18-yl)ethanesulfonamide] | 8.61 | 7.79 | –
13 | Cn1cc2c(cc1=O)OCCCCc1cc(F)cc(F)c1Oc1ccc(S(=O)(=O)C3CC3)cc1-2 [Example A-21, 17-(cyclopropylsulfonyl)-11,13-difluoro-2-methyl-6,7,8,9-tetrahydrodibenzo[4,5:7,8][1,6]dioxacyclododecino[3,2-c]pyridin-3(2H)-one] | 9.06 | 8.24 | –
14 | CCS(=O)(=O)c1ccc2c(c1)-c1cn(C)c(=O)cc1OCCCCc1ccc(F)cc1O2 [Example A-23, 17-(ethylsulfonyl)-12-fluoro-2-methyl-6,7,8,9-tetrahydrodibenzo[4,5:7,8][1,6]dioxacyclododecino[3,2-c]pyridin-3(2H)-one] | 8.90 | 8.10 | –
15 | CCS(=O)(=O)c1ccc2c(c1)-c1cn(C)c(=O)cc1OCC/C=C/c1ccc(Cl)cc1O2 [Example A-24, (E)-12-chloro-17-(ethylsulfonyl)-2-methyl-6,7-dihydrodibenzo[4,5:7,8][1,6]dioxacyclododecino[3,2-c]pyridin-3(2H)-one] | 8.48 | 7.79 | –
16 | CCS(=O)(=O)c1ccc2c(c1)-c1cn(C)c(=O)cc1OCCCCc1ccc(Cl)cc1O2 [Example A-25, 12-chloro-17-(ethylsulfonyl)-2-methyl-6,7,8,9-tetrahydrodibenzo[4,5:7,8][1,6]dioxacyclododecino[3,2-c]pyridin-3(2H)-one] | 8.89 | 7.97 | –
17 | CCS(=O)(=O)Nc1ccc2c(c1)-c1cn(C)c(=O)cc1OCCCCc1ccncc1O2 [Example A-26, N-(2-methyl-3-oxo-2,3,6,7,8,9-hexahydrobenzo[4,5][1,6]dioxacyclododecino[3,2-c:7,8-c′]dipyridin-17-yl)ethanesulfonamide] | 8.70 | 7.83 | –
18 | Cn1cc2c(cc1=O)OCCCCc1cc(Cl)ccc1Oc1ncccc1-2 [Example A-27, 11-chloro-2-methyl-6,7,8,9-tetrahydrobenzo[11,12][1,6]dioxacyclododecino[2,3-b:4,5-c′]dipyridin-3(2H)-one] | 7.91 | 7.20 | –
19 | Cn1cc2c(cc1=O)OCCCCc1ccncc1Oc1ccc(N)cc1-2 [Example A-28, 17-amino-2-methyl-6,7,8,9-tetrahydrobenzo[4,5][1,6]dioxacyclododecino[3,2-c:7,8-c′]dipyridin-3(2H)-one] | 7.07 | < 6.00 | –
20 | CCS(=O)(=O)Nc1ccc2c(c1)-c1cn(C)c(=O)cc1OCCCCc1cc(C(F)(F)F)ccc1O2 [Example A-29, N-[2-methyl-3-oxo-11-(trifluoromethyl)-2,3,6,7,8,9-hexahydrodibenzo[4,5:7,8][1,6]dioxacyclododecino[3,2-c]pyridin-17-yl]ethanesulfonamide] | 9.13 | 8.40 | –
21 | Cn1cc2c(cc1=O)OCCCCc1cc(OC(F)(F)F)ccc1Oc1ccc(NS(C)(=O)=O)cc1-2 [Example A-30, N-[2-methyl-3-oxo-11-(trifluoromethoxy)-2,3,6,7,8,9-hexahydrodibenzo[4,5:7,8][1,6]dioxacyclododecino[3,2-c]pyridin-17-yl]methanesulfonamide] | 8.94 | 8.06 | –
22 | COC(=O)c1cnc2c(c1)-c1cn(C)c(=O)cc1OCCCCc1cc(Cl)ccc1O2 [Example A-31, methyl 11-chloro-2-methyl-3-oxo-2,3,6,7,8,9-hexahydrobenzo[11,12][1,6]dioxacyclododecino[2,3-b:4,5-c′]dipyridine-17-carboxylate] | 7.61 | 6.52 | –
23 | Cn1cc2c(cc1=O)OCCCCc1cc(Cl)ccc1Oc1ncc(N)cc1-2 [Example A-32, 17-amino-11-chloro-2-methyl-6,7,8,9-tetrahydrobenzo[11,12][1,6]dioxacyclododecino[2,3-b:4,5-c′]dipyridin-3(2H)-one] | 7.05 | – | –
24 | CCS(=O)(=O)c1cnc2c(c1)-c1cn(C)c(=O)cc1OCCCCc1cc(Cl)ccc1O2 [Example A-34, 11-chloro-17-(ethylsulfonyl)-2-methyl-6,7,8,9-tetrahydrobenzo[11,12][1,6]dioxacyclododecino[2,3-b:4,5-c′]dipyridin-3(2H)-one] | 8.16 | 7.48 | –
25 | CCS(=O)(=O)Nc1cnc2c(c1)-c1cn(C)c(=O)cc1OCCCCc1cc(F)cc(F)c1O2 [Example A-35, N-(11,13-difluoro-2-methyl-3-oxo-2,3,6,7,8,9-hexahydrobenzo[11,12][1,6]dioxacyclododecino[2,3-b:4,5-c′]dipyridin-17-yl)ethanesulfonamide] | 9.17 | 8.38 | –
26 | CCS(=O)(=O)Nc1ccc2c(c1)-c1cn(C)c(=O)cc1OCCCCc1cc(OC(F)(F)F)ccc1O2 [Example A-37, N-[2-methyl-3-oxo-11-(trifluoromethoxy)-2,3,6,7,8,9-hexahydrodibenzo[4,5:7,8][1,6]dioxacyclododecino[3,2-c]pyridin-17-yl]ethanesulfonamide] | 9.06 | 8.21 | –
